Like-named read-outs stand apart in the source and are kept apart here.
Tests used:
[1] = Oral 20 mg/kg, published data, cited from earlier work
[2] = test system: Escherichia coli 25922; experiment: Mouse peritonitis-sepsis model; assay type: in vivo; conditions: neutropenic ICR mice; rifampin 20 mg/kg orally alone
Protocol: A mouse peritonitis-sepsis model was created as described elsewhere. Infection was obtained after intraperitoneal injection of bacteria from a logarithmic-phase culture. Infected mice were treated subcutaneously. The doses were selected to allow comparison with the reference compound and to remain below the maximum tolerated dose after double-dose administration. […] Briefly, mouse peritonitis sepsis model for in vivo studies were performed using male ICR mice ([…]) obtained from Envigo Laboratories (Rehovot, Israel). […] Infection was obtained by intraperitoneal injection of a logarithmic phase culture of E. coli 25922 (1.3±0.2×10^6 CFU permouse in 0.3 ml PBS). […] Infection control mice were injected with the PBS vehicle. Mouse survival was monitored for up to 7 days after treatment. Statistical analyses were performed by paired Student's t test, at α=0.05.

[3] = test system: E. coli strains 25922, 35218, 14182, 16327, 14384; experiment: MIC against the 5 listed E. coli strains of Table 2 (stated together); assay type: cell-based, Escherichia coli; conditions: absence of Compound B
Protocol: (§1) Minimal inhibitory concentrations (MICs) were determined as previously described. […] MICs were determined by microdilution susceptibility testing in 96-well plates (by Nunc) using inocula of 10^5 bacteria per ml. Cell populations were evaluated by optical density measurements at 620 nm and were calibrated against a set of standards. Hundred (100) μl of a bacterial suspension were added to 100 μl of culture medium (control) or to 100 μl of culture medium containing various tested compound concentrations in 2-fold serial dilutions. Inhibition of proliferation was determined by optical density measurements at 620 nm after an incubation period of 24 hours at 37° C. Data were obtained from ≥2 independent experiments performed in duplicate.
(§2) Shown in parentheses are calculated sensitization factor, defined as antibiotic's MICs ratio (in absence vs. presence of Compound B) at specified Compound B concentration.

[4] = test system: E. coli 25922; experiment: Simultaneous versus delayed drug exposure assay in LB; assay type: cell-based, Escherichia coli
Protocol: (§3) Time-kill kinetics data were determined using 100 μl of bacterial suspension (10^6 CFU/ml), which was added to […] LB containing none of or specified concentrations of the tested compound, antibiotic, and combinations thereof. After the specified exposure time points (37° C. under shaking), aliquots were formed, subjected to serial 10-fold dilutions in saline (0.85% NaCl), and plated for bacterial enumeration after additional 24 hours incubation at 37° C. Time-kill experiments in human and mouse plasma were performed as described elsewhere. The effects of drug delay were assessed in LB, except that bacteria were pre-incubated with the tested compound or antibiotic for the specified time points, centrifuged, and resuspended in fresh LB-containing antibiotic or the tested compound, respectively, and incubated for 3 hours before CFU enumeration.

[5] = test system: E. coli strain 35218; experiment: Checkerboard antibiotic MIC with Compound B; assay type: cell-based, Escherichia coli
Protocol: as §1, §2

[6] = test system: E. coli strain 25922; experiment: Checkerboard antibiotic MIC with Compound B; assay type: cell-based, Escherichia coli
Protocol: as §1, §2

[7] = test system: E. coli strain 16327; experiment: Checkerboard antibiotic MIC with Compound B; assay type: cell-based, Escherichia coli
Protocol: as §1, §2

[8] = test system: E. coli strain 14384; experiment: Checkerboard antibiotic MIC with Compound B; assay type: cell-based, Escherichia coli
Protocol: as §1, §2

[9] = test system: E. coli strain 14182; experiment: Checkerboard antibiotic MIC with Compound B; assay type: cell-based, Escherichia coli
Protocol: as §1, §2

[10] = test system: E. coli 25922; experiment: Time-kill kinetics in broth versus plasma; assay type: cell-based, Escherichia coli
Protocol: as §3

Question: Which Plasma concentration ([1]; 0.5 h) does the source give for `CO[C@H]1/C=C/O[C@@]2(C)Oc3c(C)c(O)c4c(O)c(c(/C=N/N5CCN(C)CC5)c(O)c4c3C2=O)NC(=O)/C(C)=C\C=C\[C@H](C)[C@H](O)[C@@H](C)[C@@H](O)[C@@H](C)[C@H](OC(C)=O)[C@@H]1C` [Rifampin, rifampin] here?
Answer: 6500 ± 4700 ng/mL

Question: And the Plasma concentration ([1]; 1 h)?
Answer: 10300 ± 400 ng/mL

Question: And the Plasma concentration ([1]; 2 h)?
Answer: 13200 ± 4400 ng/mL

Question: And the “survival rate of infected mice” value [2]?
Answer: zero

Question: And the “antibiotic MICs in the absence of the compound, all the strains tested” value [3]?
Answer: 8 to 16 µg/mL

Question: And the “reduction of CFU count” value ([4]; 0.06 μg/ml rifampin in the presence of Compound B (10 μM), simultaneous, 3 hours in LB)?
Answer: ~4 log units

Question: What about the “effect of delayed exposure on sensitization by Compound B” value ([4]; Compound B 10 μM with 0.06 μg/ml rifampin or 4 μg/ml erythromycin, LB) of the same compound?
Answer: nearly abolished the sensitization effect

Question: And the “Antibiotic MIC in the presence of Compound B” value (“Antibiotic MIC in the presence” below) ([5]; Compound B 0 μM)?
Answer: 8 µg/mL

Question: And the “Antibiotic MIC in the presence” value ([5]; Compound B 5 μM)?
Answer: 0.016 µg/mL

Question: And the “Antibiotic MIC in the presence” value ([5]; Compound B 10 μM)?
Answer: 0.002 µg/mL

Question: And the “Antibiotic MIC in the presence” value ([6]; Compound B 0 μM)?
Answer: 8 to 16 µg/mL

Question: What about the “Antibiotic MIC in the presence” value ([6]; Compound B 0 μM, listed as rifampin) of the same compound?
Answer: 16 µg/mL

Question: And the “Antibiotic MIC in the presence” value ([6]; Compound B 2.5 μM)?
Answer: 0.063 µg/mL

Question: And the “Antibiotic MIC in the presence” value ([6]; Compound B 5 μM)?
Answer: 0.004 µg/mL

Question: And the “Antibiotic MIC in the presence” value ([6]; Compound B 10 μM)?
Answer: 0.001 µg/mL

Question: What about the MIC ([6]; Escherichia coli, read-out: rifampin's MIC value, in the presence of Compound B) of the same compound?
Answer: 0.001 µg/mL

Question: What about the “Antibiotic MIC in the presence” value ([7]; Compound B 0 μM) of the same compound?
Answer: 16 µg/mL

Question: What about the “Antibiotic MIC in the presence” value ([7]; Compound B 2.5 μM) of the same compound?
Answer: 0.031 µg/mL

Question: What about the “Antibiotic MIC in the presence” value ([7]; Compound B 5 μM) of the same compound?
Answer: 0.004 µg/mL

Question: And the “Antibiotic MIC in the presence” value ([7]; Compound B 10 μM)?
Answer: 0.002 µg/mL

Question: What about the “Antibiotic MIC in the presence” value ([8]; Compound B 0 μM) of the same compound?
Answer: 8 µg/mL

Question: What about the “Antibiotic MIC in the presence” value ([8]; Compound B 2.5 μM) of the same compound?
Answer: 0.016 µg/mL

Question: What about the “Antibiotic MIC in the presence” value ([8]; Compound B 5 μM) of the same compound?
Answer: 0.008 µg/mL

Question: And the “Antibiotic MIC in the presence” value ([8]; Compound B 10 μM)?
Answer: 0.002 µg/mL

Question: And the “Antibiotic MIC in the presence” value ([9]; Compound B 0 μM)?
Answer: 8 µg/mL

Question: And the “Antibiotic MIC in the presence” value ([9]; Compound B 2.5 μM)?
Answer: 0.031 µg/mL

Question: What about the “Antibiotic MIC in the presence” value ([9]; Compound B 5 μM) of the same compound?
Answer: 0.004 µg/mL

Question: And the “Antibiotic MIC in the presence” value ([9]; Compound B 10 μM)?
Answer: 0.002 µg/mL

Question: And the “reduction of bacterial survival” value ([10]; LB broth, 24-hours end point, rifampin 1 μg/ml combined with Compound B 0.6 μM)?
Answer: more than 99%

Question: What about the “reduction of CFU count” value ([10]; human plasma, within 2 hours of exposure, rifampin 1 μg/ml with Compound B 0.6 μM) of the same compound?
Answer: more than 3 log units

Question: What about the “time to accomplish the CFU reduction (more than 3 log units)” value ([10]; human plasma, antibiotic with Compound B 0.6 μM) of the same compound?
Answer: ≤ 2 hours

Question: What about the “combined action with Compound B” value ([10]; mouse plasma, 24 hours end point, Compound B 10 μM with rifampin 1 μg/ml or erythromycin 3 μg/ml) of the same compound?
Answer: expressed synergism of action

From US20200399308A1, “COMPOUNDS AND METHODS FOR ELICITING ANTIMICROBIAL ACTIVITY” (Technion Research & Development Foundation Limited, priority 2018, published 2020)
